Patent US11091511B2, “Panaxdiol-type ginsenoside derivative, preparation method therefor and use thereof” (ARMY MEDICAL UNIVERSITY, priority 2016, dated 2021)
Marks after values point to notes of the source that are not given here.

Tests used:
apoE−/− mice [1] = test: Atherosclerotic plaque area to total aortic area in apoE-/- mice on high-fat diet (Sudan IV staining); assay type: in vivo, mouse; details: intragastric 15 weeks, compounds 30 mg/(kg·d), simvastatin 10 mg/(kg·d), x ± s, n = 5, saline control 14.67 ± 3.58
From the text: The effects of the compounds prepared in Examples 1-30 of the present invention on the percentages of areas of atherosclerotic plaque formation to the area of the entire artery in apoE−/− mice with a high-fat diet and the levels of low-density lipoprotein cholesterol and the levels of high-density lipoprotein, the specific steps are as follows: 1. animals: 160 ten-week-old, healthy and clean-grade apoE−/− mice (purchased from Peking University Experimental Animal Center), males, weight: 22-25 g, were housed in separate cages in a sterile laminar feeding room and fed freely. The mice were fed by a high-fat diet (conventional feed+0.15% cholesterol+21% lard) for 25 weeks, the room temperature was kept at 24° C., relative humidity: 50%, illumination time 7:30-19:30. 2. Grouping, administration method: after 10 weeks of feeding, the animals were divided into the following 32 groups (n=5) by weight in a balanced and random manner, and killed 15 weeks after administration. Normal saline control group: normal saline, intragastric administration. Positive control group: simvastatin 10 mg/(kg·d), intragastric administration. The compound groups prepared in Examples 1-30 of the present invention (30 groups in total): each was intragastric administered 30 mg/(kg·d). (1) Analysis of the area of atherosclerotic plaque and its percentage to total area: after the animals were killed, the aortas were separated, from the roots of the aortas to the terminal bifurcations of the abdominal aortas. After formalin fixation, the aortas were stained with Sudan IV, the red stained parts were the areas of atherosclerotic lesions. The percentage of the area of the lesion area to total area was calculated using Image Pro Plus 5.0 software. Data were expressed as x±s, and SPSS 10.0 line single-factor analysis of variance was performed among groups, a significant difference was indicated when p<0.05.

[2] = tested on: RAW264.7 cell-derived foam cells; test: Formation of RAW264.7 cell-derived foam cells (ox-LDL, oil red O, absorbance 490 nm); assay type: cell-based, mouse; details: 48 hours, model group = 100%, x ± s, n = 3
Description: The effects of the compounds prepared in Examples 1-30 of the present invention on the formation of RAW264.7 cell-derived foam cells, the specific steps are as follows:
1. Cell culture and foam cell model establishment:
RAW264.7 cells were cultured in DMEM culture medium with high glucose level (GIBCO) to a cell concentration of 1×10^6, planted in a 6-well plate, and 60 mg/L of ox-LDL (oxidized modified low-density lipoprotein, Peking Union Medical College) was added, foam cells were obtained after 48 hours of incubation.
2. Grouping and index detection:
The obtained foam cells were divided into 61 groups, 3 well plates were included in one group. After the treatment by adding the drugs (100 μL/well) for 48 hours, the medium was discarded, and after oil red 0 staining, the excess amount of oil red 0 was washed away. The cells were dissolved in isopropanol and the absorbance values were measured at 490 nm. The OD value of the model group was 100%, and the OD value of each group corrected by the number of cells was compared with the model group to obtain the ratio of intracellular lipid content. The larger the value, the more intracellular lipids, the higher the degree of formation of foam cells.
Normal saline control group: normal saline
Low dose groups of the compounds prepared in Examples 1-30 of the present invention:
10 μmol/L (solvents were normal saline).
High dose groups of compounds prepared in Examples 1-30 of the present invention: 30 μmol/L (solvents were normal saline).
Data were expressed as x±s, and SPSS 10.0 line single-factor analysis of variance was performed amoung groups, a significant difference was indicated when p<0.05.

TNF-α = test: Local TNF-α level in the arteries of apoE-/- mice (Millipore liquid phase chip); assay type: in vivo, mouse; details: high-fat diet, intragastric 15 weeks, compounds 30 mg/(kg·d), simvastatin 10 mg/(kg·d), x ± s, n = 5, saline control 25.58 ± 6.44
From the text: The effects of the compounds prepared in Examples 1-30 of the present invention on the percentages of areas of atherosclerotic plaque formation to the area of the entire artery in apoE−/− mice with a high-fat diet and the levels of low-density lipoprotein cholesterol and the levels of high-density lipoprotein, the specific steps are as follows: 1. animals: 160 ten-week-old, healthy and clean-grade apoE−/− mice (purchased from Peking University Experimental Animal Center), males, weight: 22-25 g, were housed in separate cages in a sterile laminar feeding room and fed freely. The mice were fed by a high-fat diet (conventional feed+0.15% cholesterol+21% lard) for 25 weeks, the room temperature was kept at 24° C., relative humidity: 50%, illumination time 7:30-19:30. 2. Grouping, administration method: after 10 weeks of feeding, the animals were divided into the following 32 groups (n=5) by weight in a balanced and random manner, and killed 15 weeks after administration. Normal saline control group: normal saline, intragastric administration. Positive control group: simvastatin 10 mg/(kg·d), intragastric administration. The compound groups prepared in Examples 1-30 of the present invention (30 groups in total): each was intragastric administered 30 mg/(kg·d). (3) Determination of TNF-α level: Millipore liquid phase chip method was used for the determination (Mcytomag-70K-3, Mouse Cytokine/Chemokine Magnetic Bead Panel). Data were expressed as x±s, and SPSS 10.0 line single-factor analysis of variance was performed among groups, a significant difference was indicated when p<0.05.

RAW264.7 cells = test: RAW264.7 cell survival rate by CCK8 method; assay type: cell-based, mouse; details: compound 10 prnol/L, 0.1% DMSO, CCK8, x ± s, n = 3, normal saline control = 1
Description: In order to further verify the toxicities of the compounds prepared in Examples 1-30 of the present invention, the mouse macrophage cell line RAW264.7 was cultured, and the compounds prepared in Examples 1-30 of the invention were prepared to a concentration of […] using culture medium, wherein the solvent was normal saline, the co-solvent was dimethyl sulfoxide (DMSO, the final concentratoin was 0.1%), and a 0.1% DMSO saline control group was provided. The cell survival rate was determined by CCK8 method. The data were expressed as x±s. SPSS 10.0 line single-factor analysis of variance was performed among groups. The difference was significant when p<0.05.

apoE−/− mice [3] = test: Blood lipids (LDL-C, HDL-C) in apoE-/- mice on high-fat diet; assay type: in vivo, mouse; details: apoE-/- mice serum, intragastric 15 weeks, compounds 30 mg/(kg·d), simvastatin 10 mg/(kg·d), x ± s; for HDL-C: n = 5, saline control 3.74 ± 0.62; for LDL-C: n = 5, saline control 7.33 ± 1.03
From the text: The effects of the compounds prepared in Examples 1-30 of the present invention on the percentages of areas of atherosclerotic plaque formation to the area of the entire artery in apoE−/− mice with a high-fat diet and the levels of low-density lipoprotein cholesterol and the levels of high-density lipoprotein, the specific steps are as follows:
1. animals: 160 ten-week-old, healthy and clean-grade apoE−/− mice (purchased from Peking University Experimental Animal Center), males, weight: 22-25 g, were housed in separate cages in a sterile laminar feeding room and fed freely. The mice were fed by a high-fat diet (conventional feed+0.15% cholesterol+21% lard) for 25 weeks, the room temperature was kept at 24° C., relative humidity: 50%, illumination time 7:30-19:30.
2. Grouping, administration method:
after 10 weeks of feeding, the animals were divided into the following 32 groups (n=5) by weight in a balanced and random manner, and killed 15 weeks after administration.
Normal saline control group: normal saline, intragastric administration.
Positive control group: simvastatin 10 mg/(kg·d), intragastric administration.
The compound groups prepared in Examples 1-30 of the present invention (30 groups in total): each was intragastric administered 30 mg/(kg·d).
(2) Determination of the levels of total cholesterol (TC), low-density cholesterol lipoprotein (LDL-C) and high-density lipoprotein cholesterol (HDL-C): using ROCHE 7060 automatic biochemical analyzer for the determination.
Data were expressed as x±s, and SPSS 10.0 line single-factor analysis of variance was performed among groups, a significant difference was indicated when p<0.05.

Row | SMILES | Plaque area/total aorta area (%) (apoE−/− mice [1]) | Foam cell formation (%) ([2]; dose 10 μmol/L) | Foam cell formation (%) ([2]; dose 30 μmol/L) | TNF-α level (ng/g) (TNF-α) | Cell Survival Rate (RAW264.7 cells) | HDL-C (apoE−/− mice [3]) | LDL-C (apoE−/− mice [3])
1 | CC(=O)OC1CC2[C@@]3(C)CC[C@H](OC(C)=O)C(C)(C)C3CC[C@@]2(C)[C@]2(C)CCC([C@](C)(CCC=C(C)C)OC(C)=O)[C@@H]12 (stereo partly drawn) [Compound 16] | 10.41 ± 2.09 ^a % | 81 ± 12% | 72 ± 21 ^a % | 15.94 ± 4.29 ^a ng/g | 0.88 ± 0.01 | 4.12 ± 0.90 ^a mmol/L | 5.18 ± 1.26 ^a mmol/L
2 | CC(=O)OC1CC2[C@@]3(C)CC[C@H](OC(C)=O)C(C)(C)C3CC[C@@]2(C)[C@]2(C)CCC([C@](C)(CCC3OC3(C)C)OC(C)=O)[C@@H]12 (stereo partly drawn) [Compound 17] | 8.53 ± 2.57 ^a % | 70 ± 15 ^a % | 55 ± 21 ^a % | 15.27 ± 4.65 ^a ng/g | 0.87 ± 0.07 | 5.55 ± 0.56 ^a mmol/L | 4.83 ± 1.51 ^a mmol/L
3 | CC(=O)OC1CC2[C@@]3(C)CC[C@H](OC(C)=O)C(C)(C)C3CC[C@@]2(C)[C@]2(C)CCC([C@](C)(CCC=O)OC(C)=O)[C@@H]12 (stereo partly drawn) [Compound 18] | 9.15 ± 2.85 ^a % | 84 ± 16% | 76 ± 14 ^a % | 16.65 ± 4.57 ^a ng/g | 0.85 ± 0.08 | 4.72 ± 0.91 ^a mmol/L | 6.15 ± 1.28 mmol/L
4 | COC(=O)[C@H](CC(C)C)NCCC[C@](C)(OC(C)=O)C1CC[C@]2(C)[C@@H]1C(OC(C)=O)CC1[C@@]3(C)CC[C@H](OC(C)=O)C(C)(C)C3CC[C@]12C (stereo partly drawn) [Compound 19] | 8.34 ± 2.41 ^a % | 63 ± 18 ^a % | 43 ± 9 ^a % | 11.23 ± 3.69 ^a ng/g | 0.91 ± 0.07 | 5.13 ± 0.83 ^a mmol/L | 4.62 ± 1.34 ^a mmol/L
5 | COC(=O)[C@@H](NCCC[C@](C)(OC(C)=O)C1CC[C@]2(C)[C@@H]1C(OC(C)=O)CC1[C@@]3(C)CC[C@H](OC(C)=O)C(C)(C)C3CC[C@]12C)C(C)C (stereo partly drawn) [Compound 20] | 9.67 ± 2.98 ^a % | 79 ± 15 ^a % | 63 ± 14 ^a % | 15.98 ± 5.33 ^a ng/g | 1.02 ± 0.13 | 4.72 ± 0.52 ^a mmol/L | 6.62 ± 0.89 mmol/L
6 | COC(=O)[C@H](NCCC[C@](C)(OC(C)=O)C1CC[C@]2(C)[C@@H]1C(OC(C)=O)CC1[C@@]3(C)CC[C@H](OC(C)=O)C(C)(C)C3CC[C@]12C)[C@@H](C)O (stereo partly drawn) [Compound 21] | 8.28 ± 3.29 ^a % | 65 ± 15 ^a % | 47 ± 13 ^a % | 10.76 ± 3.54 ^a ng/g | 0.94 ± 0.17 | 5.82 ± 0.95 ^a mmol/L | 4.31 ± 1.84 ^a mmol/L
7 | COC(=O)[C@H](CO)NCCC[C@](C)(OC(C)=O)C1CC[C@]2(C)[C@@H]1C(OC(C)=O)CC1[C@@]3(C)CC[C@H](OC(C)=O)C(C)(C)C3CC[C@]12C (stereo partly drawn) [Compound 22] | 10.32 ± 2.74 ^a % | 76 ± 10 ^a % | 65 ± 14 ^a % | 18.14 ± 6.82 ^a ng/g | 1.03 ± 0.15 | 4.29 ± 0.84 ^a mmol/L | 6.31 ± 1.17 mmol/L
8 | COC(=O)CCC(NCCC[C@](C)(OC(C)=O)C1CC[C@]2(C)[C@@H]1C(OC(C)=O)CC1[C@@]3(C)CC[C@H](OC(C)=O)C(C)(C)C3CC[C@]12C)C(=O)OC (stereo partly drawn) [Compound 23] | 8.64 ± 2.46 ^a % | 68 ± 18 ^a % | 47 ± 19 ^a % | 12.61 ± 374^a ng/g | 1.01 ± 0.09 | 5.39 ± 0.61 ^a mmol/L | 4.28 ± 1.46 ^a mmol/L
9 | COC(=O)CNCCC[C@](C)(OC(C)=O)C1CC[C@]2(C)[C@@H]1C(OC(C)=O)CC1[C@@]3(C)CC[C@H](OC(C)=O)C(C)(C)C3CC[C@]12C (stereo partly drawn) [Compound 24] | 9.54 ± 2.65 ^a % | 79 ± 18 ^a % | 66 ± 16 ^a % | 15.47 ± 2.88 ^a ng/g | 0.89 ± 0.14 | 4.68 ± 0.67 ^a mmol/L | 5.65 ± 1.04 ^a mmol/L
